# Source: patent US4110368A, “Hydro substituted prostanoic acids and esters” (American Cyanamid Company, priority 1977, dated 1978)
# Key:
# [1] = test system: ulcerogenic properties of indomethacin; experiment: protection against indomethacin-induced ulcers (ulcer score); type: in vivo, rat; settings: two half doses by gavage, indomethacin 20 mg./kg. s.c., ulcer scale 0-4, score 2.5 or lower = active
# Procedure: The compounds of this invention provide protection against the ulcerogenic properties of indomethacin. This assay was carried out in the following manner.
# Rats were starved for 48 hours (water was given ad libitum). Indomethacin (20 mg./kg. of body weight) was administered by the subutaneous route and one-half the dose of the test compound was administered by gavage at the same time. After 3 hours, the second half of the test compound was administered also by Gavage. Five hours after the administration of indomethacin the animals were decapitated and the stomachs removed. The stomachs were washed with distilled water, blotted on gauze, cut along the larger curvature, and the contents rinsed with distilled water. The stomachs were spread out, pinned on a cork and visualized under magnifying glass for ulcers. The criteria for scoring of ulcers was as previously reported. [Abdel-Galil et al. Brit. J. Pharmac. Chemotherapy 33:1-14 (1968)].
# 1 -- Petechial hemorrhage or pin point ulcer
# 3 -- Many ulcers, a few large
# 4 -- Many ulcers, mainly large
# Control animals treated with indomethacin but not test compound consistently give scores of about 3.0-3.5. Control animals treated with neither indomethacin nor test compound give scores of about 0.5-0.8. Compounds producing a score of 2.5 or lower are considered to be active.
# [2] = test system: gastric acid secretion; experiment: gastric acid secretion inhibition, modified Shay rat procedure; type: in vivo, rat (male, CFE strain); settings: intraduodenal dose 100 mg./kg. of body weight; 3 hours; 20% or more = active
# Procedure: The novel compounds of the present invention are also effective inhibitors of gastric acid secretion and of ulcer development in experimental animals, and thus are potentially valuable as agents for the control of gastric acid secretion and of gastric erosion and as anti-ulcer agents. Gastric acid secretion inhibitory action is usually measured by the "Shay rat" procedure ^(1,2) with some modifications as follows.
# The rats (male, CFE strain) were starved for 48 hours (water was given ad libitum) to permit evacuation of stomach contents. On the morning of the experiment, under ether anesthesia, the abdominal region was shaved and a midline incision (1-1 1/2 inch) was made with a scapel. […]
# The abdominal cavity was exposed by cutting with scissors and the esophagus close to the stomach was clamped off with a hemostat, the stomach was removed by cutting above the hemostat (the esophagus was cut) and between the two sutures. […] The supernatant was collected, volume measured and recorded, 2 drops of a phenolphthalein indicator (1% in 95% ethanol) were added and the solution was titrated with 0.02N NaOH (or with 0.04N NaOH when large volumes of stomach contents were encountered) to pH 8.4 (because of usual coloring of the stomach contents, phenolphthalein was only used to permit visual indication that the end point was near) and the amount of acid present was calculated. […]
# [3] = total oral dose 25 mg./kg. of body weight, control 3.2
smiles,measurement,setting,value
CCCCCC(O)/C=C/C1CCC(=O)C1CCCCSCC(=O)O (stereo not drawn) [9-oxo-3-thia-15-hydroxy-13-trans-prostenoic acid],"Score, Treated",[1]; [3],1.8
CCCCCC(O)/C=C/C1CCC(=O)C1(C)CCCCCCC(=O)O (stereo not drawn) [9-oxo-8β-methyl-15-hydroxy-13-trans-prostenoic acid],"Score, Treated","[1]; total oral dose 12.5 mg./kg. of body weight, control 3.0",2.0
"CCCCCC(O)/C=C\[C@H]1CCC(=O)[C@@H]1CCCCCCC(=O)O (relative stereo) [9-oxo-15-hydroxy-13-cis-prostenoic acid, 15-hydroxy-9-oxo-13-cis-prostenoic acid]","Score, Treated","[1]; total oral dose 100 mg./kg. of body weight, control 3.0",1.3
CCCCC(CC)C(O)/C=C/[C@H]1CCC(=O)[C@@H]1CCCCCCC(=O)O (relative stereo) [9-oxo-15-hydroxy-16-ethyl-13-trans-prostenoic acid],"Score, Treated",[1]; [3],1.7
CCCCC[C@@H](O)/C=C/[C@H]1CCC(=O)[C@@H]1CCCCSCC(=O)O (relative stereo) [9-oxo-3-thia-15-epi-hydroxy-13-trans-prostenoic acid],"Score, Treated",[1]; [3],2.3
CCCCCC(O)/C=C/[C@H]1CCC(=O)[C@@H]1CCCCCC(CC)C(=O)O (relative stereo),"Score, Treated","[1]; total oral dose 50 mg./kg. of body weight, control 3.0",2.2
"CCCCCC(O)/C=C/[C@H]1CCC(=O)[C@@H]1CCCCC(C)(C)CC(=O)O (relative stereo) [9-oxo-15-hydroxy-3,3-dimethyl-13-trans-prostenoic acid]",Percent Inhibition (gastric acid secretion),[2],51%
